Assays:
Assay in all cases: drug sensitivity score (DSS) from 5-dose viability curve (DSS (area-based score, 0 = no response)); higher = more sensitive (stronger viability inhibition); extreme values may be limits of the assay
[1] = tested on: MDCK wild-type + doxycycline; settings: doxycycline: 10 ng/mL; 72 h
Summary of the method: (§1)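 Parental MDCK cells and MDCK cells with a doxycycline-inducible transgene were both grown with doxycycline at 10 ng/mL in the medium before plating, then dispensed at 2000 cells/well into 384-well plates pre-spotted with an oncology library of 528 drugs at five doses (1-10,000 nM). After 72 h at 37 °C, CellTiter-Glo luminescence was recorded and scaled on each plate between vehicle and positive controls. This scaled signal served as the viability readout, and drug sensitivity scores were derived from dose-response curve fits in the Breeze pipeline.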

[2] = tested on: MDCK p60AmotL2-inducible + doxycycline (p60AmotL2 expressing); settings: doxycycline: 10 ng/mL; 72 h
Summary of the method: as §1

[3] = tested on: MDCK wild-type - doxycycline; settings: doxycycline: none; 72 h
Summary of the method: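 An oncology library of 528 drugs was pre-spotted at five doses (1-10,000 nM) in 384-well plates, and parental MDCK cells without doxycycline were added at 2000 cells/well. The plates were kept at 37 °C for 72 h. Drug sensitivity scores were obtained by fitting dose-response curves in the Breeze pipeline to CellTiter-Glo viability readings scaled per plate between vehicle and positive controls.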

| Structure (SMILES) | drug sensitivity score [1] | drug sensitivity score [2] | drug sensitivity score [3] |
| --- | --- | --- | --- |
| CCCCOc1nc(N)c2c(n1)N(Cc1cccc(CN3CCCC3)c1)CC(=O)N2 [Vesatolimod] | 0 | 0 | 0 |
| Cn1cc(CNCC2CCN(c3ncc(C(=O)NO)cn3)CC2)c2ccccc21 [Quisinostat] | 8.6 | 12.7 | 9.8 |
| CCCCC(=O)OCC(=O)[C@]1(O)Cc2c(O)c3c(c(O)c2[C@@H](O[C@H]2C[C@H](NC(=O)C(F)(F)F)[C@H](O)[C@H](C)O2)C1)C(=O)c1c(OC)cccc1C3=O [Valrubicin] | 8.8 | 12.9 | 5.7 |
| N[C@@H]1CCCN(c2c(/C=C3\SC(=O)NC3=O)cccc2-c2ccccc2)C1 [AZD1208] | 0 | 1 | 0 |
| Cc1ccc(C(=O)Nc2cccc(C(F)(F)F)c2)cc1Nc1nc(-c2cccnc2)nc2c1cnn2C [NVP-BHG712] | 0 | 0 | 4.8 |
| NC(=O)c1cccc(-c2cccc(OC(=O)NC3CCCCC3)c2)c1 [URB597] | 0 | 0 | 0 |
| C=CC(=O)Nc1cccc(Nc2nc(Nc3ccc(OCCOC)cc3)ncc2F)c1 [Spebrutinib] | 0 | 0.8 | 0 |
| Cc1ncc(-c2ccnc(Nc3ccc(S(C)(=O)=O)cc3)n2)n1C(C)C [AZD-5438] | 13.1 | 9.1 | 9.9 |
| O=C1CCc2c(Oc3ccc4c(c3)[C@@H]3[C@H](O4)[C@H]3c3nc4cc(C(F)(F)F)ccc4[nH]3)ccnc2N1 [BGB-283] | 5.4 | 6.6 | 1.6 |
| CC(C)c1cc(C(=O)N2Cc3ccc(CN4CCN(C)CC4)cc3C2)c(O)cc1O [Onalespib] | 18.2 | 18.8 | 16.2 |
| Nc1ncn([C@@H]2O[C@H](CO)[C@@H](O)[C@H]2O)c(=O)n1 [Azacitidine] | 0.6 | 0.7 | 0.3 |
| CCN(c1cc(-c2ccc(CN3CCOCC3)cc2)cc(C(=O)NCc2c(C)cc(C)[nH]c2=O)c1C)C1CCOCC1 [Tazemetostat] | 0 | 2.1 | 0 |
| COC(=O)c1ccc([C@H]2c3[nH]c4ccccc4c3C[C@H](C(=O)OC)N2C(=O)CCl)cc1 [RSL3] | 0 | 0 | 0 |
| O=S(=O)(c1cccc2c(O)nccc12)N1CCCNCC1 [Hydroxyfasudil] | 0 | 0 | 0 |
| C=CC(=O)N1CCC[C@@H](n2nc(-c3ccc(Oc4ccccc4)cc3)c3c(N)ncnc32)C1 [Ibrutinib] | 3.8 | 9.7 | 4.5 |
| CCc1cncnc1N1CCN(Cc2nc3ccc(C(F)(F)F)cc3[nH]2)CC1 | 0 | 0 | 0 |
| O=C1NC(=O)[C@@H](c2cn3c4c(cccc24)CCC3)[C@@H]1c1c[nH]c2ccccc12 [Tivantinib] | 3.4 | 2.7 | 1.6 |
| NC(=S)N/N=C/c1ncccc1N [Triapine] | 3.6 | 3.9 | 4.7 |
| O=C(c1ccc(OCCN2CCCCC2)cc1)c1c(-c2ccc(O)cc2)sc2cc(O)ccc12 [Raloxifene] | 5.2 | 6.1 | 5.2 |
| O=C(/C=C\n1cnc(-c2cc(C(F)(F)F)cc(C(F)(F)F)c2)n1)NNc1ccccn1 [Verdinexor] | 10.6 | 10.1 | 9.2 |
| COc1cc2c(cc1OC(C)C)[C@H](c1ccc(Cl)cc1)N(c1ccc(N(C)C[C@H]3CC[C@H](N4CCN(C)C(=O)C4)CC3)cc1)C(=O)C2 [NVP-CGM097] | 5.3 | 7.6 | 5.4 |
| CCCC(CCC)C(=O)O [Valproic acid] | 0 | 0 | 0 |
| Cc1cc(F)c(C(=O)Nc2cccc(-c3nncn3C(C)C)n2)cc1-n1cnc(C2CC2)c1 [Selonsertib] | 0 | 0 | 0 |

| Structure (SMILES) | drug sensitivity score [1] | drug sensitivity score [2] | drug sensitivity score [3] |
| --- | --- | --- | --- |
| CNc1nc(Nc2cn(C(C)(C)C#N)nc2C)ncc1C(F)(F)F [GNE-0877] | 0 | 0 | 0 |
| COc1ccc(-c2ccc3ncc4c(c3c2)n(-c2ccc(N3CCNCC3)c(C(F)(F)F)c2)c(=O)n4C)cn1 [NVP-BGT226] | 13.5 | 18.9 | 11.8 |
| C[C@@H]1COCCN1c1cc(C2([S@](C)(=N)=O)CC2)nc(-c2cc[nH]c3nccc2-3)n1 [AZD6738] | 3.4 | 6.7 | 1.3 |
| CC(=O)N(O)CCCCCNC(=O)CCC(=O)N(O)CCCCCNC(=O)CCC(=O)N(O)CCCCCN [Deferoxamine] | 3.9 | 5.1 | 3.3 |
| NC(=O)/C(=C/n1cnc(-c2cc(C(F)(F)F)cc(C(F)(F)F)c2)n1)c1cncnc1 [Eltanexor] | 21.8 | 19.9 | 19.6 |
| C[C@@]1(C(=O)Nc2ccc(F)nc2)CCCN1c1nc(Nc2cc(C3CC3)n[nH]2)c2cccn2n1 | 8.5 | 12.6 | 0 |
| COc1ncc(-c2ccc3nccc(-c4ccnnc4)c3c2)cc1NS(=O)(=O)c1ccc(F)cc1F [Omipalisib] | 14.2 | 20.2 | 14.5 |
| CO[C@H]1CC[C@H](N2C(=O)CNc3ncc(-c4ccc(C(C)(C)O)nc4)nc32)CC1 [CC-223] | 2.9 | 5.2 | 2.8 |
| CC[C@@](C)(Nc1ccnc(-c2c[nH]c3ncccc23)n1)C(=O)NCC(F)(F)F [Decernotinib] | 0 | 0 | 0 |
| CN[C@@H](C)C(=O)N[C@H]1CN(C(=O)CC(C)C)CC[C@H]2CC[C@@H](C(=O)NC(c3ccccc3)c3ccccc3)N2C1=O [AT-406] | 0.1 | 0 | 0 |
| O=c1[nH]c(C2CCCN2)nc2c1oc1ccc(Cl)cc12 (stereo not drawn) | 0 | 0 | 0 |
| C[C@@H](C(=O)O)c1ccc(-c2ccccc2)c(F)c1 [Tarenflurbil] | 0 | 0 | 0 |
| CCN(CC)CCN(Cc1ccc(-c2ccc(C(F)(F)F)cc2)cc1)C(=O)Cn1c(SCc2ccc(F)cc2)nc(=O)c2c1CCC2 [Darapladib] | 0 | 0 | 0 |
| NCCNc1ccc(NCCN)c2c1C(=O)c1ccncc1C2=O [Pixantrone] | 0 | 0 | 0 |
| COc1cc2ncnc(Oc3cccc(NC(=O)Nc4cc(C(C)(C)C(F)(F)F)on4)c3)c2cc1OC | 0 | 0 | 0 |
| Cc1cnc(NC(=O)Nc2cc(Br)c(C)cc2OC[C@@H]2CNCCO2)cn1 [Rabusertib] | 0 | 0 | 0 |
| CC(C)[C@H](C(=O)Nc1ccc(C(=O)NO)cc1)c1ccccc1 [AR-42] | 12.4 | 14 | 10.4 |
| O=C(CCCCCCNC(=O)c1cnc(N(c2ccccc2)c2ccccc2)nc1)NO [Rocilinostat] | 4.9 | 7.2 | 4.5 |
| C[C@@H]1CN(CC(=O)Nc2ccc3c(c2)Cc2cccc(-c4cc(=O)cc(N5CCOCC5)o4)c2S3)C[C@H](C)O1 | 2 | 2.4 | 2.2 |
| CCCCCCCCCCCCCCCCOP(=O)([O-])OCC[N+](C)(C)C [Miltefosine] | 5.2 | 5.3 | 4.9 |
| CN(C)CCCOc1ccc(-c2ccc3ncc4c(c3c2)n(C2CCOCC2)c(=O)n4C)cn1 [AZD0156] | 0 | 1 | 0 |
| Cc1nc(-c2cn3c(n2)-c2ccc(-c4cnn(C(C)(C)C(N)=O)c4)cc2OCC3)n(C(C)C)n1 [Taselisib] | 0.3 | 6.3 | 0 |
| C[C@H]1Oc2cc(cnc2N)-c2c(nn(C)c2C#N)CN(C)C(=O)c2ccc(F)cc21 | 0 | 2.1 | 0.1 |

Source: the supplement of paper PMC11003180
